Experimental findings from ChEMBL document CHEMBL1201862, “PubChem BioAssay data set” (2004) are described below.

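Assay format: 96-well plates, 48-hour exposure. GI50 is the concentration that inhibits growth by half.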 The source made the active and inactive calls. Cut-off read from the data, not from the text of the source: active = GI50 up to about 1.1 µM and inactive = higher.

Experiment in all cases: NCI-60 cell line screen, 48 h
For experiment [1], the system named is DMS-114.
Experiment [2] has as its system M19-MEL.
The subject of experiment [3] is LXFL 529.
The test system of experiment [4] is KM-20L2.
The test system of experiment [5] is HOP-18.
Experiment [6] relates to SNB-78.
Experiment [7] deals with DMS-273.
The test system of experiment [8] is XF498.
Experiment [9] has as its system RXF 631.

On to `CCOc1cc2cnc3c4cc(OC)c(OC)cc4ccc3c2cc1OC`, for which the GI50 in [1] is 7.1 µM (inactive); in experiment [2], 39.8 µM (inactive); in experiment [3], 9.02 µM (inactive); in [4] it was > 100 µM (inactive); in experiment [5] it was 16.9 µM (inactive); in experiment [6], > 100 µM (inactive).

`Cc1cccc(C)c1NC(=O)CCc1n[nH]c(=S)o1`: the GI50 is 44.7 µM (inactive) in experiment [7]; 39.1 µM (inactive) in experiment [1]; > 100 µM (inactive) in [2]; > 100 µM (inactive) in experiment [3]; > 100 µM (inactive) in [4]; > 100 µM (inactive) in experiment [5]. In experiment [6], the GI50 is > 100 µM (inactive).

As to `CC(C)(C)C(=O)OC12/C(=N/O)CCCCCC1c1ccccc12` (stereo not given), the GI50 in experiment [7] was 17.9 µM (inactive); in experiment [1], 19.4 µM (inactive); in experiment [2], 16.6 µM (inactive); in [3], 16.3 µM (inactive); in experiment [4] it was 20.2 µM (inactive); in [5], 18.8 µM (inactive). Further, the GI50 in experiment [6] is 25.1 µM (inactive).

With `CCc1c(CNc2ccc(C(=O)NC(CC(=O)O)C(=O)O)cc2)ccc2nc(N)nc(N)c12` (stereo not given), the GI50 in experiment [7] was < 0.0202 µM (active); in experiment [1] it was < 0.0262 µM (active); in [2], 0.133 µM (active); in [4], 0.451 µM (active); in experiment [8], > 100 µM (inactive); in experiment [5] it was > 61.9 µM (inactive). Besides, the GI50 in [6] was > 60.3 µM (inactive).

In the case of `COc1ccc(C(=O)C(C(=O)C(=O)Nc2ccc(Cl)c(Cl)c2)c2ccc(OC)cc2)cc1` (stereo not given), the GI50 in experiment [7] is > 100 µM (inactive); in [1], 76.9 µM (inactive); in experiment [2], > 100 µM (inactive); in experiment [3], > 100 µM (inactive); in experiment [4] it was > 100 µM (inactive); in [8], > 100 µM (inactive). Also, the GI50 in experiment [5] and in experiment [6] was > 100 µM (inactive) in each case.

For `Cc1nc(N)sc1C(=O)/C=C/c1ccc(/C=C/C(=O)c2sc(NC(=O)CCCCCCCCC(=O)Nc3nc(C)c(C(=O)/C=C/c4ccc(/C=C/C(=O)c5sc(N)nc5C)cc4)s3)nc2C)cc1`, the GI50 in [7], in [1], in experiment [2], in [3], in experiment [9] and in experiment [4] was > 100 µM (inactive) each time. Also, the results for the GI50 in [8], in [5] and in experiment [6] were > 100 µM (inactive), > 100 µM (inactive) and 58.5 µM (inactive), respectively.

Consider `COc1ccc(N2C(=O)/C(=C/c3ccc(N(CCC#N)CCC#N)cc3C)N=C2/C=C\c2ccccc2)cc1`, for which the GI50 in experiment [1] was 23.9 µM (inactive); in experiment [2], 26.5 µM (inactive); in experiment [3] it was 8.43 µM (inactive); in experiment [9], > 100 µM (inactive); in experiment [4], 4.73 µM (inactive); in experiment [5], > 100 µM (inactive). Further, the GI50 in experiment [6] is > 100 µM (inactive).

On to `COc1cc(C2(C)SCCCS2)c(I)c(OC)c1OC`, for which the GI50 in experiment [7], in [1], in experiment [2], in experiment [3], in experiment [9] and in experiment [4] was > 100 µM (inactive) in each case. Moreover, the GI50 in experiment [8], in [5] and in experiment [6] was > 100 µM (inactive) throughout.

As for `CC(=O)OC1C(CCl)OC(N=[N+]=[N-])C(OC(C)=O)C1OC(C)=O` (stereo not given), the GI50 is > 100 µM (inactive) in experiment [7]; > 100 µM (inactive) in [1]; > 100 µM (inactive) in experiment [2]; > 10 µM (inactive) in [3]; > 100 µM (inactive) in [9]; > 100 µM (inactive) in [4]. Also, the GI50 in [8] was > 100 µM (inactive).

For `O=C1CCN2C(=Nc3cccc4cccc2c34)N1`, the GI50 in experiment [7], in experiment [1], in experiment [2], in experiment [3], in experiment [4] and in experiment [8] was > 100 µM (inactive) each time. The GI50 in [6] is > 100 µM (inactive).

In the case of `CP(C)C.[Ag][I]`, the GI50 in [7] is > 100 µM (inactive); in experiment [1] it was 73.8 µM (inactive); in experiment [2], > 100 µM (inactive); in [3] it was 16 µM (inactive); in [9] it was 24.3 µM (inactive); in experiment [4] it was > 100 µM (inactive). The figures for the GI50 in [8], in experiment [5] and in [6] were 15 µM (inactive), 62.8 µM (inactive) and 28.4 µM (inactive), respectively.

Regarding `Cc1cc(NS(=O)(=O)c2ccc(NC(=O)c3ccc(Cl)c4c(Nc5ccc(S(=O)(=O)N=C(N)N)cc5)c5ccccc5nc34)cc2)no1`, the GI50 is 62.4 µM (inactive) in experiment [1]; 46.8 µM (inactive) in experiment [2]; 31.8 µM (inactive) in experiment [3]; > 100 µM (inactive) in experiment [4]; 17.6 µM (inactive) in experiment [8]; 41.9 µM (inactive) in experiment [6].

For `COc1cc(N)c2[nH]c3c(C)ccc(C)c3c2c1`, the GI50 in [7], in experiment [1], in experiment [2], in experiment [8] and in [6] was > 100 µM (inactive) in each case.

Turning to `O=C(O)C1(c2ccccc2)CCCNCC1` (stereo not given), the GI50 in experiment [7], in experiment [1], in experiment [2], in experiment [3], in experiment [9] and in [4] was > 100 µM (inactive) in each case. Besides, the GI50 in [5] and in [6] was > 100 µM (inactive) each time.

Consider `CN(C)C(=S)/N=c1\ssc(=S)n1-c1ccccc1`, for which the GI50 in experiment [7] is 20.9 µM (inactive); in experiment [1], 15.9 µM (inactive); in [2], 16.3 µM (inactive); in experiment [3] it was 12.4 µM (inactive); in [4], 16.6 µM (inactive); in experiment [8], 14.7 µM (inactive). Further, the results for the GI50 in [5] and in [6] were > 100 µM (inactive) and 19.4 µM (inactive), respectively.

Turning to `O=C(O)c1nccnc1C(=O)O`, the GI50 in experiment [7], in [1], in experiment [2], in [3], in [9] and in experiment [4] was > 100 µM (inactive) throughout. In addition, in experiment [8], the GI50 is > 100 µM (inactive).

In the case of `CCCCNC1=C(C(=O)OCC)C(=O)CO1`, the GI50 in experiment [7], in experiment [1], in experiment [2], in [3], in [4] and in [8] was > 100 µM (inactive) in each case. In addition, the GI50 in experiment [5] was > 100 µM (inactive).

`COC(=O)C1=C(C(=O)OC)C2(C)OC1C(=O)C21CC1` (stereo not given): the GI50 in [7] was 17.7 µM (inactive); in experiment [1], 20.4 µM (inactive); in experiment [2] it was 71 µM (inactive); in experiment [3], 19.5 µM (inactive); in experiment [9], 17.1 µM (inactive); in experiment [4], 23.7 µM (inactive). In [8], the GI50 was 13.6 µM (inactive).

Take `O=C(Cc1nc2ccccc2s1)C(=O)Nc1ccc(Cl)cc1Cl`: the GI50 in [7], in experiment [2], in experiment [3], in experiment [9], in experiment [4] and in experiment [8] was > 100 µM (inactive) in each case. Besides, in [6], the GI50 is > 100 µM (inactive).

With `CC(=O)OC1CC2C(C)(C)C(=O)C=C[C@]2(C)C2CCC3(C)C(c4ccoc4)C(=O)C4OC43[C@]12C` (stereo not given in full), the GI50 was 31.6 µM (inactive) in experiment [7]; 16.1 µM (inactive) in [1]; 16 µM (inactive) in experiment [2]; 22.6 µM (inactive) in experiment [3]; 17.2 µM (inactive) in experiment [4]; 99.3 µM (inactive) in experiment [5]. Also, in [6], the GI50 is 51.1 µM (inactive).

With `C=C[C@@]12CCCCC1C/C(=C(/O)OC)C(=O)C2` (stereo not given in full), the GI50 in experiment [7], in [1], in [2], in [3], in experiment [9] and in [4] was > 100 µM (inactive) throughout. For the same compound, the GI50 in experiment [8], in experiment [5] and in experiment [6] was > 100 µM (inactive) each time.

In the case of `CC(C)=CCC/C(C)=C/CC/C(C)=C/Cc1c(O)c2ccccc2oc1=O`, the GI50 in experiment [7] was > 100 µM (inactive); in experiment [1], 83.6 µM (inactive); in experiment [2] it was > 100 µM (inactive); in experiment [3], > 100 µM (inactive); in [4], > 100 µM (inactive); in experiment [5], > 100 µM (inactive). Further, in experiment [6], the GI50 was > 100 µM (inactive).

Take `COc1cccc(/C=C(/C(=O)O)c2cc(OC)c(OC)c(OC)c2)c1`: the GI50 in experiment [7], in [1], in experiment [2], in [3], in [9] and in experiment [4] was > 100 µM (inactive) each time. The GI50 in [8] was 37.8 µM (inactive); in experiment [5] it was > 100 µM (inactive); in [6] it was > 100 µM (inactive).

`COc1ccc2[nH]cc(CCNC(C)=O)c2c1` [MELATONIN]: the GI50 in experiment [7], in [1], in experiment [2], in experiment [3], in experiment [4] and in experiment [8] was > 100 µM (inactive) throughout. For the same compound, the GI50 in experiment [5] and in experiment [6] was > 100 µM (inactive) each time.

In the case of `CCCCCCCCCCCCCCCCOP(=O)([O-])OCC[N+](C)(C)C` [MILTEFOSINE], the GI50 in experiment [7] is 6.92 µM (inactive); in experiment [1], 32.6 µM (inactive); in experiment [2] it was 15.6 µM (inactive); in experiment [4], > 10 µM (inactive); in experiment [8] it was 17.9 µM (inactive); in experiment [5], 39.4 µM (inactive). Besides, in experiment [6], the GI50 was 47.6 µM (inactive).
